The source of these data is publication PMC12017579, “Phase separation of the PRPP amidotransferase into dynamic condensates promotes de novo purine synthesis in yeast” (PLOS Biology, 2025).

Holding throughout (assay): in vitro condensation assay, fluorescence microscopy of Ade4-mNG particles
Common to all, as to format: binding

The target in test [1] is T1, Ade4-mNG (yeast PPAT Ade4) (Saccharomyces cerevisiae, UniProt P04046).
T1 construct: full length, C-terminal mNeonGreen and Strep-tag II kept; purified from budding yeast cells
T1 sequence (P04046 2-510): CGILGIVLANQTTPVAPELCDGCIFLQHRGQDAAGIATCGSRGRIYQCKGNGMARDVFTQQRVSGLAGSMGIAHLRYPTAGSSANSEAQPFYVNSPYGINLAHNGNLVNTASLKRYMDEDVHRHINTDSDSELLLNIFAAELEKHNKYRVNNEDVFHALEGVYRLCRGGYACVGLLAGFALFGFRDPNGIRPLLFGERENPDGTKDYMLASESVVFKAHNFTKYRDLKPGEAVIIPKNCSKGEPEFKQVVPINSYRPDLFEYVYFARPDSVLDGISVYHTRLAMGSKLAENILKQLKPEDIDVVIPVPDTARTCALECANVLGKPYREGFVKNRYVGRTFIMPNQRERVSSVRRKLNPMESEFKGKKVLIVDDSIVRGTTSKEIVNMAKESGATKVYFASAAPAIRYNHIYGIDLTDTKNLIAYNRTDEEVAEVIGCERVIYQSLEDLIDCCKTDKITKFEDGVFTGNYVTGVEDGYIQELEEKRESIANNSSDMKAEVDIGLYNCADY
Conditions: inhibits self-assembly, 0.2 µM protein, 10% PEG8K.

For test [2], the target named is T2, Ade4∆IDR-mNG (Saccharomyces cerevisiae, UniProt P04046).
T2 construct: C-terminal mNeonGreen and Strep-tag II kept; purified from budding yeast
T2 sequence (P04046 2-480 limits assumed): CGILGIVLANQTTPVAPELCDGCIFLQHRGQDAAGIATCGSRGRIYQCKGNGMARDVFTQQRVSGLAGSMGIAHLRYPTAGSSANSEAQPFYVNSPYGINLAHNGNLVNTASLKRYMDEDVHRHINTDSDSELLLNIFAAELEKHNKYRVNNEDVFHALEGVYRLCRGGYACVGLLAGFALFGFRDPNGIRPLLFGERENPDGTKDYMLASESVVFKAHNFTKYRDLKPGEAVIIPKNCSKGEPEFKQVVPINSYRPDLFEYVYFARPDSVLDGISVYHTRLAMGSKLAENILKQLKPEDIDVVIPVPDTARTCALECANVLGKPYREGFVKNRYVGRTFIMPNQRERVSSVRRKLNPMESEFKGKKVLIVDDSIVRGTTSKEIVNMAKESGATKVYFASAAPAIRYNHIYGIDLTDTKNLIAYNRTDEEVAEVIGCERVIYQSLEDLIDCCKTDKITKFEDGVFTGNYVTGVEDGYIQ
Conditions: inhibits self-assembly; 500 µM AMP, 0.2 µM protein, 10% PEG8K.

The target in test [3] is T3, Ade4-mNG (yeast PPAT Ade4) (Saccharomyces cerevisiae, UniProt P04046, D373A/D374A).
T3 construct: full length, C-terminal mNeonGreen and Strep-tag II kept; purified from budding yeast cells
T3 sequence (P04046 2-510 D373A/D374A): T1 sequence (P04046 2-510) with D372A, D373A
Conditions: inhibits self-assembly, less than wild type; 1 mM AMP, 0.2 µM protein, 10% PEG8K.

Structures are written as SMILES. Positions count from the first letter of the chain named.

As for `Nc1ncnc2c1ncn2[C@@H]1O[C@H](COP(=O)(O)OP(=O)(O)O)[C@@H](O)[C@H]1O` [ADP], the “in vitro condensation assay, fluorescence microscopy of Ade4-mNG particles” value (shortened to “in vitro condensation assay”) in test [1] (5 mM MgCl2, pH 7.5) is “In the presence of GMP, AMP, ADP, and ATP, the condensation of Ade4-mNG was significantly reduced”.

Take `Nc1ncnc2c1ncn2[C@@H]1O[C@H](COP(=O)(O)O)[C@@H](O)[C@H]1O` [AMP]: the “in vitro condensation assay” value in test [2] was “AMP also suppressed the condensation of Ade4∆IDR-mNG”; in test [3] it was “AMP inhibited the assembly of Ade4-DA-mNG condensates, albeit less effectively than that of Ade4-mNG condensates”; in test [1] (5 mM MgCl2, pH 7.5, counteracted by PRPP), “In the presence of GMP, AMP, ADP, and ATP, the condensation of Ade4-mNG was significantly reduced”.

For `Nc1ncnc2c1ncn2[C@@H]1O[C@H](COP(=O)(O)OP(=O)(O)OP(=O)(O)O)[C@@H](O)[C@H]1O` [ATP], the “in vitro condensation assay” value in test [1] (5 mM MgCl2, pH 7.5) is “In the presence of GMP, AMP, ADP, and ATP, the condensation of Ade4-mNG was significantly reduced”.

Regarding `Nc1nc2c(ncn2[C@@H]2O[C@H](COP(=O)(O)O)[C@@H](O)[C@H]2O)c(=O)[nH]1` [GMP], the “in vitro condensation assay” value in test [1] (5 mM MgCl2, pH 7.5) is “In the presence of GMP, AMP, ADP, and ATP, the condensation of Ade4-mNG was significantly reduced”.

For the compound `Nc1ncnc2c1ncn2[C@@H]1O[C@H](CSCC[C@H](N)C(=O)O)[C@@H](O)[C@H]1O` [SAH], the “in vitro condensation assay” value in test [1] (weaker than AMP, 500 µM SAH, 0.5% DMSO) is listed as “exerted approximately one-third the inhibitory effect of AMP”.
